Experimental data reported in patent publication US8148388B2, “2,4 (4,6) pyrimidine derivatives” (Janssen Pharmaceutica, N.V., priority 2004, dated 2012).

Key:
Type in all cases: biochemical
EGFR-kinase domain = molecular target: T1, EGFR-kinase domain (Homo sapiens, UniProt P00533); experiment: In vitro inhibition of EGFR (Flash Plate assay); conditions: full dose response 1.10^−6M to 1.10^−10M, read-out: C12 EGFR flash Score
T1 construct: 0.5 μg EGFR-kinase domain/well
Method: The in vitro inhibition of EGFR was assessed using either the Flash Plate technology or the glass-fiber filter technology as described by Davies, S. P. et al., Biochem J. (2000), 351; p. 95-105. The Flash Plate technology is generally described by B. A. Brown et al. in High Throughput Screening (1997), p. 317-328. Editor(s): Devlin, John P. Publisher: Dekker, New York, N.Y.
In the Flash Plate EGFR kinase reaction assay, a kinase substrate consisting of biotinylated poly(L-glutamic acid-L-tyrosine) (poly(GT)biotin), is incubated with the aforementioned protein in the presence of (^33P) radiolabeled ATP. (^33P) phosphorylation of the substrate is subsequently measured as light energy emitted using a streptavidin-coated Flash Plate (PerkinElmer Life Sciences) by trapping and quantifying the binding of the biotin tagged and radiolabeled substrate.
The EGFR kinase reaction is performed at 30° C. for 60 minutes in a 96-well microtiter FlashPlate (PerkinElmer Life Sciences). For each of the tested compounds a full dose response 1.10^−6M to 1.10^−10M has been performed. IRESSA® and Tarceva™ (erlotinib) were used as reference compounds. The 100 μl reaction volume contains 54.5 mM TrisHCl pH 8.0, 10 mM MgCl2, 100 μM Na3VO4, 5.0 μM unlabeled ATP, 1 mM DTT, 0.009% BSA, 0.8 μCi AT^33P, 0.35 μg/well poly(GT)biotin and 0.5 μg EGFR-kinase domain/well.
The reaction is stopped by aspirating the reaction mixture and washing the plate 3× with 200 μl wash/stop buffer (PBS+100 mM EDTA). After the final wash step 200 μl of wash/stop buffer was added to each well and the amount of phosphorylated (^33P) Poly(GT)biotin determined by counting (30 sec/well) in a microtiterplate scintillation counter.

Abl (h) = Abl (h) (Homo sapiens, UniProt P00519); experiment: Abl human kinase assay (glass-fiber filter); conditions: test concentration of 10^−6M; read-out: C1 score (inhibition of Abl human)
Method: (§1) In the glass-fiber filter technology the activity of the kinase of interest is measured using an appropriate substrate that is incubated with the aforementioned kinase protein in the presence of (^33P) radiolabeled ATP. (^33P) Phosphorylation of the substrate is subsequently measured as radioactivity bound on a glass fiber-filter.
(§2) All kinases are pre-diluted to a 10× working concentration prior to addition into the assay. The composition of the dilution buffer for each kinase is detailed below.
(§3) (specific activity approx. 500 cpm/pmol, concentration as required). The reaction is initiated by the addition of the MgATP mix. After incubation for 40 minutes at room temperature, the reaction is stopped by the addition of 5 μl of a 3% phosphoric acid solution. 10 μl of the reaction is then spotted onto a P30 filtermat and washed three times for 5 minutes in 75 mM phosphoric acid and once in methanol prior to drying and scintillation counting.

cSRC (h) = cSRC (h) (Homo sapiens, UniProt P12931); experiment: cSRC human kinase assay (glass-fiber filter); conditions: test concentration of 10^−6M; read-out: C3 score (inhibition of cSRC human)
Sequence of cSRC (h) (P12931 whole entry): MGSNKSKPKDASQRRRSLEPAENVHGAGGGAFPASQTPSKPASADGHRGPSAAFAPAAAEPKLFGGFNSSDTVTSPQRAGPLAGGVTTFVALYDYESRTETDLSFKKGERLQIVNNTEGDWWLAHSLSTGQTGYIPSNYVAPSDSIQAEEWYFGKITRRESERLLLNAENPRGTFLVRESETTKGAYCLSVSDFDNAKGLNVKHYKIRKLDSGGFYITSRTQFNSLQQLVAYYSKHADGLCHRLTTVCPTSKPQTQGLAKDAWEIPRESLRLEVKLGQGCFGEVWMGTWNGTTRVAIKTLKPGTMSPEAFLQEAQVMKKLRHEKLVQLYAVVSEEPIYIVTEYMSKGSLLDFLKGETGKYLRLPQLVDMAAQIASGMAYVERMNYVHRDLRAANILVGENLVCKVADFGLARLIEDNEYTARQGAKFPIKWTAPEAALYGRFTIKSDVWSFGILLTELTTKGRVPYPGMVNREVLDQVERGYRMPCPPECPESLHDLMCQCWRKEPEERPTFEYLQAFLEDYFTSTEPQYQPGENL
Method: (§4) The in vitro inhibition of a panel of kinases was assessed using either the glass-fiber filter technology as described by Davies, S. P. et al., Biochem J. […] In the glass-fiber filter technology the activity of the kinase of interest is measured using an appropriate substrate that is incubated with the aforementioned kinase protein in the presence of (^33P) radiolabeled ATP. (^33P) Phosphorylation of the substrate is subsequently measured as radioactivity bound on a glass fiber-filter. All kinases are pre-diluted to a 10× working concentration prior to addition into the assay. The composition of the dilution buffer for each kinase is detailed below. […] The reaction is initiated by the addition of the MgATP mix. […] 10 μl of the reaction is then spotted onto a P30 filtermat and washed three times for 5 minutes in 75 mM phosphoric acid and once in methanol prior to drying and scintillation counting.

Flt3 (h) = Flt3 (h) (Homo sapiens, UniProt P36888); experiment: Flt3 human kinase assay (glass-fiber filter); conditions: test concentration of 10^−6M; read-out: C6 score (inhibition of Flt3 human)
Sequence of Flt3 (h) (P36888 27-993): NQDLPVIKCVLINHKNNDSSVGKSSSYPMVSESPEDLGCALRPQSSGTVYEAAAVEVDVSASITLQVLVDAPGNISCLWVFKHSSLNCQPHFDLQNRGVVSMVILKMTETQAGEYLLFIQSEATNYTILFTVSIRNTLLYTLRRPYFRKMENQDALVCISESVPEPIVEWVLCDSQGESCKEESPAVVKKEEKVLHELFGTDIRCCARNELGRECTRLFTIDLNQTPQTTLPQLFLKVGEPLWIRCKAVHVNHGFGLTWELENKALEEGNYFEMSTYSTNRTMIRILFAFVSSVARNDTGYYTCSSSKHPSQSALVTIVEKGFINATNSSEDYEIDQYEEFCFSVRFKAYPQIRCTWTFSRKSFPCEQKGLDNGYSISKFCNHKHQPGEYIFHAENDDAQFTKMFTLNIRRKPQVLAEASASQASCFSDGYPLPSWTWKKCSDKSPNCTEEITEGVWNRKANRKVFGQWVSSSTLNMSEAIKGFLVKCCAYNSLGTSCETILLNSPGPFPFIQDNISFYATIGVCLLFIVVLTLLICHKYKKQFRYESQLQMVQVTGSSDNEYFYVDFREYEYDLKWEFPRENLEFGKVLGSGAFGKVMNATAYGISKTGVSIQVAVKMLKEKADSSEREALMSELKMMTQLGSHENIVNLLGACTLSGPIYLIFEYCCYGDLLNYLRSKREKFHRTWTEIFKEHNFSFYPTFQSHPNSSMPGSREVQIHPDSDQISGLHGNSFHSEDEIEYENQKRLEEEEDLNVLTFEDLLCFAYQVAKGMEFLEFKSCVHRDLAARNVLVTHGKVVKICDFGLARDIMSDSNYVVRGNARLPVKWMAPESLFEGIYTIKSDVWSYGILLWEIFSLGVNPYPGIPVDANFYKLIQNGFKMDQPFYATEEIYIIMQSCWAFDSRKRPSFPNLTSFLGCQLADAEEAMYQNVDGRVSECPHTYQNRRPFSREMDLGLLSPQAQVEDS
Method: (§5) The in vitro inhibition of a panel of kinases was assessed using either the glass-fiber filter technology as described by Davies, S. P. et al., Biochem J. (2000), 351; p. 95-105.
as §1, §2
as §3, with “In a final reaction volume of 25 μl, Flt3 (h) (5-10 mU) is incubated with 8 mM MOPS pH 7.0, 0.2 mM EDTA, 50 μM […], 10 mM MgAcetate and [γ-^33P-ATP] (specific” for “(specific”

Fms (h) = Fms (h) (Homo sapiens, UniProt P07333); experiment: Fms human kinase assay (glass-fiber filter); conditions: test concentration of 10^−6M; read-out: C7 score (inhibition of Fms human)
Sequence of Fms (h) (P07333 20-972): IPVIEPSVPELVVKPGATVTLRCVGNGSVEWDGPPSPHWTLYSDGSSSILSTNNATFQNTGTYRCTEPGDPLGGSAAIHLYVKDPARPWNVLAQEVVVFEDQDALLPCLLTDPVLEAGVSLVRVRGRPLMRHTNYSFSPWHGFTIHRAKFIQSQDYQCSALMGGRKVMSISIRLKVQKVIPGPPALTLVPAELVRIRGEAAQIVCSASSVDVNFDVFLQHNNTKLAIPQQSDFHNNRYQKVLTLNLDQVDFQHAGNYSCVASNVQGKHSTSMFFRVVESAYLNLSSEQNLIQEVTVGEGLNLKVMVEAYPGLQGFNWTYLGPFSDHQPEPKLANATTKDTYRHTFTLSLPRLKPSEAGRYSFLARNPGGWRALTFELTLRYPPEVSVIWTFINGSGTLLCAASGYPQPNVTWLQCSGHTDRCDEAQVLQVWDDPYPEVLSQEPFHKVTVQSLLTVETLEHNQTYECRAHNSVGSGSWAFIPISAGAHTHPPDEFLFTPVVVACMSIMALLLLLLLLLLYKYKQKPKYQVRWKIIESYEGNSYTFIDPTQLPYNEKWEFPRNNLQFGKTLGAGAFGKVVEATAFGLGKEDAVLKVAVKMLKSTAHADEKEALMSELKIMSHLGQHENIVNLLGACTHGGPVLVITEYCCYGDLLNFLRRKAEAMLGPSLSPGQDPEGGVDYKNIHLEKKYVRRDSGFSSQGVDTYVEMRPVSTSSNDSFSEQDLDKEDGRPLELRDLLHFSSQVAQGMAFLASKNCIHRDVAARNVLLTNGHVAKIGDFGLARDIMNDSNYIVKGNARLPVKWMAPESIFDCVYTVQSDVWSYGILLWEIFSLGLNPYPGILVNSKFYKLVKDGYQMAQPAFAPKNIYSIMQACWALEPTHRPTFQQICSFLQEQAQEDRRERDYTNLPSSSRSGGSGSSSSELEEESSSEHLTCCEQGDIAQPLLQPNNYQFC
Method: as §5, §1, §2
as §3, with “In a final reaction volume of 25 μl, Fms (h) (5-10 mU) is incubated with 8 mM MOPS pH 7.0, 0.2 mM EDTA, 250 μM […], 10 mM MgAcetate and [γ-^33P-ATP] (specific” for “(specific”

Lck (h) = Lck (h) (Homo sapiens, UniProt P06239); experiment: Lck human kinase assay (glass-fiber filter); conditions: test concentration of 10^−6M; read-out: C9 score (inhibition of Lck human)
Sequence of Lck (h) (P06239 whole entry): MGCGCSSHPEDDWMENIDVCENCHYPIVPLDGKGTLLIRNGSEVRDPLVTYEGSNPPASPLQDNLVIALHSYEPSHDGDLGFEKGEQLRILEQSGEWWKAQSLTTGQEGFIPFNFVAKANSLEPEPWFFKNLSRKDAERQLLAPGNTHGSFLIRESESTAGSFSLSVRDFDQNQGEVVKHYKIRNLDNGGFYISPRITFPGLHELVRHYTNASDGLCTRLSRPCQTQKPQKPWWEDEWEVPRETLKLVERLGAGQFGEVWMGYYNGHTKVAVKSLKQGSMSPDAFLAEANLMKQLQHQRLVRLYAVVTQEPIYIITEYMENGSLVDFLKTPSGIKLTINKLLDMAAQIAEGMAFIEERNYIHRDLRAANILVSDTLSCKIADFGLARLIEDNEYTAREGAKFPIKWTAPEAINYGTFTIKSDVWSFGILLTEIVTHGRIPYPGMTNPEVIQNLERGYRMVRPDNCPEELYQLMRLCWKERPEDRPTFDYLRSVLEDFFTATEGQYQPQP
Method: as §4, with “below. [table]” for “below.”

Lyn (h) = Lyn (h) (Homo sapiens, UniProt P07948); experiment: Lyn human kinase assay (glass-fiber filter); conditions: test concentration of 10^−6M; read-out: C10 score (inhibition of Lyn human)
Sequence of Lyn (h) (P07948 whole entry): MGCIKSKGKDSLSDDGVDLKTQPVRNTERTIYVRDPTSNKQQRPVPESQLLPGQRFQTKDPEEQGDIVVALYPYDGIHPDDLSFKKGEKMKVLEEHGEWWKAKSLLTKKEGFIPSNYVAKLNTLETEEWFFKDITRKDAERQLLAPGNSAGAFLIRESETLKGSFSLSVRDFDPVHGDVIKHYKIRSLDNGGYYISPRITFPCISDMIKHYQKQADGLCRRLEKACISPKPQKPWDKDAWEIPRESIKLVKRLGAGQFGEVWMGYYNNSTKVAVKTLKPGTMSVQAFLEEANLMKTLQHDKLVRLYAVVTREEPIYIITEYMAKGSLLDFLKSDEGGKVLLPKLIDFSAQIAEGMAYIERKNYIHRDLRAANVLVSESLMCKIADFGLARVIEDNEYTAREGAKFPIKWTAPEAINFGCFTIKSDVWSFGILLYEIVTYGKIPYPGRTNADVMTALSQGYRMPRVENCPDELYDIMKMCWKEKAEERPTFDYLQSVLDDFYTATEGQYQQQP
Method: as §1, §2
as §3, with “In a final reaction volume of […] (h) (5-10 mU) is incubated with 50 mM Tris pH 7.5, 0.1 mM EGTA, 0.1 mM Na3VO4, 0.1% O-mercaptoethanol, 0.1 mg/ml poly(Glu, Tyr) 4:1, 10 mM MgAcetate and [γ-^33P-ATP] (specific” for “(specific”, “Filtennat A” for “P30 filtermat”

Yes (h) = Yes (h) (Homo sapiens, UniProt P07947); experiment: Yes human kinase assay (glass-fiber filter); conditions: test concentration of 10^−6M; read-out: C11 score (inhibition of Yes human)
Sequence of Yes (h) (P07947 whole entry): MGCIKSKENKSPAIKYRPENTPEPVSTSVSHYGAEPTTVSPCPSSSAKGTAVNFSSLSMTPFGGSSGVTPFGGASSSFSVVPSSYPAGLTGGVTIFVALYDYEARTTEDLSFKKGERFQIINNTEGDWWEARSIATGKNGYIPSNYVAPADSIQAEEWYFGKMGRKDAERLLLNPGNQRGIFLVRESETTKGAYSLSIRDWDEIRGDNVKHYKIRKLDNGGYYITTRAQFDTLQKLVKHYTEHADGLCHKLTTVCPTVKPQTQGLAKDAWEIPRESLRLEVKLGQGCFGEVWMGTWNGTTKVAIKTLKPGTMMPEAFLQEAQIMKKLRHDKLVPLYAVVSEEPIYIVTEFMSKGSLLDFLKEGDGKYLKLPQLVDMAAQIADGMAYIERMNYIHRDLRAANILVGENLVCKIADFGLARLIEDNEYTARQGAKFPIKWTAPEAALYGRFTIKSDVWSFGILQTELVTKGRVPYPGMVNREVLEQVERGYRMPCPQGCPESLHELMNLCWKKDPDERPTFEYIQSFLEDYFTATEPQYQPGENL
Method: as §1, §2
as §3, with “In a final reaction volume of 25 μl, Yes (h) (5-10 mU) is incubated with 8 mM MOPS pH 7.0, 0.2 mM EDTA, 0.1 mg/ml poly(Glu, Tyr) 4:1, 10 mM MgAcetate and [γ-^33P-ATP] (specific” for “(specific”, “[…],” for “cpm/pmol,”, “Filtermat A” for “P30 filtermat”

T1 sequence (P00533 712-979 limits assumed): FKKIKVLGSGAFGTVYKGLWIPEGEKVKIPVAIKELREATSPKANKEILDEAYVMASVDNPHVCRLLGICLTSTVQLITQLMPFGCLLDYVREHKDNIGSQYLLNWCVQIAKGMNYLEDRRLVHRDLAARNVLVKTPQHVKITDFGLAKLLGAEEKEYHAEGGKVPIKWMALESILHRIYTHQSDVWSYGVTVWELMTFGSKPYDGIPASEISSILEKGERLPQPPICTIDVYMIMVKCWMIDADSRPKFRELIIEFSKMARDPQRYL

COc1ccc2cc1OCCNC(=O)C1CCCCN1Cc1cc(ccc1Cl)Nc1cc(ncn1)N2 (racemic) [Compound 145]
IC50 (EGFR-kinase domain): 1000 to 10000 nM

O=C1NCc2cccc(c2)Nc2ccnc(n2)Nc2cccc1c2 [Compound 24, 2,4,8,15,23-pentaazatetracyclo[15.3.1.1~3,7~.1~9,13~]tricosa-1(21),3,5,7(23),9,11,13(22),17,19-nonaen-16-one]
inhibition at 1 µM (Abl (h)): 30 to 60% | inhibition at 1 µM (cSRC (h)): 10 to 30% | inhibition at 1 µM (Flt3 (h)): 60 to 80% | inhibition at 1 µM (Fms (h)): 10 to 30% | inhibition at 1 µM (Lck (h)): 30 to 60% | inhibition at 1 µM (Lyn (h)): 10 to 30% | inhibition at 1 µM (Yes (h)): 10 to 30%

O=C1COc2cccc(c2)Nc2nccc(n2)Nc2cccc(c2)OCCCN1 [Compound 29, 14,21-dioxa-2,4,8,18,28-pentaazatetracyclo[20.3.1.1~3,7~.1~9,13~]octacosa-1(26),3,5,7(28),9,11,13(27),22,24-nonaen-19-one]
inhibition at 1 µM (cSRC (h)): 10 to 30% | inhibition at 1 µM (Flt3 (h)): > 80% | inhibition at 1 µM (Fms (h)): 10 to 30% | inhibition at 1 µM (Lck (h)): 30 to 60% | inhibition at 1 µM (Yes (h)): 60 to 80%

O=C1CCCCCCNC(=O)c2cccc(c2)Nc2cc(ncn2)Nc2cccc(c2)CN1 [Compound 57, 2,4,6,8,15,23-hexaazatetracyclo[23.3.1.1~3,7~.1~9,13~]hentriaconta-1(29),3,5,7(31),9,11,13(30),25,27-nonaene-14,22-dione]
inhibition at 1 µM (Flt3 (h)): 30 to 60%

CC(C)C1NC(=O)c2cccc(c2)Nc2cc(ncn2)Nc2cccc(c2)CNC(=O)CNC1=O (stereo not shown) [Compound 60]
inhibition at 1 µM (Fms (h)): 10 to 30% | inhibition at 1 µM (Yes (h)): 10 to 30%

O=C1CNC(=O)CNC(=O)c2cccc(c2)Nc2cc(ncn2)Nc2cccc(c2)CN1 [Compound 61]
inhibition at 1 µM (Fms (h)): 60 to 80% | inhibition at 1 µM (Yes (h)): 10 to 30%

COc1ccc2cc1OCCNC(=O)CCCN(C)Cc1cc(ccc1Cl)Nc1cc(ncn1)N2 [Compound 111]
IC50 (EGFR-kinase domain): 1000 to 10000 nM

CCN1CCC(=O)NCCOc2cc(ccc2OC)Nc2cc(ncn2)Nc2ccc(Cl)c(c2)C1 [Compound 113]
IC50 (EGFR-kinase domain): 1000 to 10000 nM

COc1ccc2cc1OCCNC(=O)CCN1CCC(CC1)N(C)Cc1cc(ccc1Cl)Nc1cc(ncn1)N2 [Compound 127]
IC50 (EGFR-kinase domain): 1000 to 10000 nM

CCN1CCNC(=O)C(CC2CCCCC2)NC(=O)COc2ccc(cc2)Nc2cc(ncn2)Nc2cccc(c2)C1 (stereo not shown) [Compound 135]
IC50 (EGFR-kinase domain): 1000 to 10000 nM

CCN1CCNC(=O)C2CN(CCO2)C(=O)COc2ccc(cc2)Nc2cc(ncn2)Nc2cccc(c2)C1 (stereo not shown) [Compound 136]
IC50 (EGFR-kinase domain): < 1000 nM

COc1ccc2cc1OCCNC(=O)C1CCCN(C1)C(=O)COc1ccc(cc1)Nc1cc(ncn1)N2 (stereo not shown) [Compound 140]
IC50 (EGFR-kinase domain): 1000 to 10000 nM

COc1ccc2cc1OCCNC(=O)CC(CC(C)C)NC(=O)COc1ccc(cc1)Nc1cc(ncn1)N2 (stereo not shown) [Compound 141]
IC50 (EGFR-kinase domain): 1000 to 10000 nM

COc1ccc2cc1OCCNC(=O)C(CCSC)NC(=O)COc1cccc(c1)Nc1cc(ncn1)N2 (stereo not shown) [Compound 173]
IC50 (EGFR-kinase domain): 1000 to 10000 nM

COCC1NC(=O)COc2cccc(c2)Nc2cc(ncn2)Nc2cccc(c2)OCCCCCNC1=O (stereo not shown) [Compound 179]
IC50 (EGFR-kinase domain): 1000 to 10000 nM

O=C1COc2cccc(c2)Nc2cc(ncn2)Nc2cccc(c2)OCCCCCNC(=O)C(Cc2cccnc2)N1 (stereo not shown) [Compound 180]
IC50 (EGFR-kinase domain): 1000 to 10000 nM

COc1ccc2cc1OCCNC(=O)C1CN(CCC1O)Cc1cc(ccc1Cl)Nc1cc(ncn1)N2 (stereo not shown) [Compound 182]
IC50 (EGFR-kinase domain): 1000 to 10000 nM

CCN1CC(=O)NCCOc2cc(ccc2OC)Nc2cc(ncn2)Nc2ccc(Cl)c(c2)C1 [Compound 183]
IC50 (EGFR-kinase domain): 1000 to 10000 nM

CN1Cc2cccc(c2)Nc2cc(ncn2)Nc2ccccc2OCCCCCNC(=O)CCN2CCC1CC2 [Compound 186]
IC50 (EGFR-kinase domain): 1000 to 10000 nM

CCN1CC(=O)NCCCCCOc2ccccc2Nc2cc(ncn2)Nc2cccc(c2)C1 [Compound 190]
IC50 (EGFR-kinase domain): 1000 to 10000 nM

O=C1CCN(CCN2CCOCC2)Cc2cccc(c2)Nc2cc(ncn2)Nc2cccc(c2)OCCCCN1 [Compound 195]
IC50 (EGFR-kinase domain): 1000 to 10000 nM

CN1Cc2cccc(c2)Nc2cc(ncn2)Nc2cccc(c2)OCCCCNC(=O)CCN2CCC1CC2 [Compound 196]
IC50 (EGFR-kinase domain): 1000 to 10000 nM
